Source: US20050150764A1 (priority 2001, published 2005)
Like-named read-outs stand apart in the source and are kept apart here.

Columns and labels:
[1] = tested on: larvae of the mustard beetle (Phaedon cochleariae); assay: Phaedon larvae test (Example B); format: in vivo; settings: 1000 ppm, after 7 days, cabbage leaves dipped
Method: (§1) Phaedon larvae Test [table] To produce a suitable preparation of active compound, 1 part by weight of active compound is mixed with the stated amounts of solvent and emulsifier, and the concentrate is diluted with emulsifier-containing water to the desired concentration. Cabbage leaves (Brassica oleracea) are treated by being dipped into the preparation of active compound at the desired concentration and are populated with larvae of the mustard beetle (Phaedon cochleariae) while the leaves are still moist. After the desired period of time, the kill in % is determined. 100% means that all of the beetle larvae have been killed: 0% denotes that no beetle larvae have been killed.

[2] = tested on: caterpillars of the army worm (Spodoptera frugiperda); assay: Spodoptera frugiperda test (Example E); format: in vivo; settings: 1000 ppm, after 7 days, cabbage leaves dipped
Method: as §1, with “Spodoptera frugiperda” for “Phaedon larvae”, “caterpillars” for “larvae”, “army worm (Spodoptera frugiperda)” for “mustard beetle (Phaedon cochleariae)”, “caterpillars” for “beetle larvae”

[3] = tested on: adult Musca domestica, strain: Reichswald (OP, SP, carbamate resistant); assay: Test with flies (Musca domestica) (Example H); format: in vivo
Method: Test with Flies (Musca domestica)
(§2) 20 mg of active substance are dissolved in 1 ml of dimethyl sulphoxide; lower concentrations are prepared by dilution with distilled water.
[…] After the filter disks have dried, 25 test organisms are transferred to the Petri dishes and covered.
The activity of the active compound preparation is determined after 1, 3, 5, 24 and 48 hours. 100% means that all the flies were killed; 0% means that none of the flies was killed.

Lucilia cuprina larvae = assay: Blowfly larvae test/development inhibition activity (Example I); format: in vivo; settings: 100% = no flies hatched
Method: Blowfly Larvae Test/Development Inhibition Activity
as §2
About 20 Lucilia cuprina larvae are introduced into a test tube containing 1 cm^3 of horse meat and 0.5 ml of the test preparation of active compound. The efficacy of the active compound preparation is determined after 24 and 48 hours. The test tubes are transferred to beakers whose bases are covered with sand. After 2 more days, the test tubes are removed and the pupae are counted.
The activity of the active compound preparation is assessed in accordance with the number of flies which have hatched following 1.5 times the development period of an untreated control. 100% means that no flies have hatched; 0% means that all of the flies hatched normally.

logP (pH 2) = settings: for logP (pH 2): intermediates of formula (VIIa), Table 6
[4] = Concentration 4 μg fly, reading time not given
[5] = Concentration 20 μg fly, reading time not given
[6] = Concentration 100 μg fly, reading time not stated (1, 3, 5, 24 and 48 hours in method)

O=C(Nc1ccc(C(F)(F)F)cc1)N1CCC(n2cc(Cl)cn2)C(c2cccc(Cl)c2)=N1 (stereo not drawn) [Example 9]
kill [1]: 100% | logP (pH 2)/ m.p. [° C.] (logP part): 4.69/199 | kill [2]: 100% | % Activity/Kill [3, 4]: 0% | % Activity/Kill [3, 5]: 85% | % Activity/Kill [3, 6]: 95% | % Activity/Kill (Lucilia cuprina larvae; Concentration 20 ppm): 0% | % Activity/Kill (Lucilia cuprina larvae; Concentration 100 ppm): 100%

O=C(Nc1ccc(OC(F)(F)F)cc1)N1CCC(n2cc(Cl)cn2)C(c2cccc(Br)c2)=N1 (stereo not drawn) [Example 12]
kill [1]: 100% | logP (pH 2)/ m.p. [° C.] (logP part): 4.82/197 | kill [2]: 100%

O=C(Nc1ccc(OC(F)(F)F)cc1)N1CCC(n2cc(Cl)cn2)C(c2cccc(Cl)c2)=N1 (stereo not drawn) [Example 7]
kill [1]: 100% | logP (pH 2)/ m.p. [° C.] (logP part): 4.73/181 | kill [2]: 100% | % Activity/Kill [3, 4]: 0% | % Activity/Kill [3, 5]: 50% | % Activity/Kill [3, 6]: 99% | % Activity/Kill (Lucilia cuprina larvae; Concentration 4 ppm): 0% | % Activity/Kill (Lucilia cuprina larvae; Concentration 20 ppm): 100% | % Activity/Kill (Lucilia cuprina larvae; Concentration 100 ppm): 100%

N#Cc1cccc(C(=O)C(CCCl)n2cc(Cl)cn2)c1 (stereo not drawn) [IV-1, 3′-cyano-2-(4-chloropyrazol-1-yl)-4-chlorobutyrophenone]
logP (logP (pH 2)): 2.95

O=C(c1cccc(F)c1)C(Br)CCCl (stereo not drawn) [Example V-2]
logP (pH 2): 3.47

N#Cc1cnn(C2CCN(C(=O)Nc3ccc(Cl)cc3)N=C2c2cccc(Cl)c2)c1 (stereo not drawn) [Example 18]
logP (pH 2)/ m.p. [° C.] (logP part): 3.90/228

O=C1OCCC1C(=O)c1cccc(C(F)(F)F)c1 (stereo not drawn) [VIIa-2]
logP (pH 2) (logP (pH 2)): 2.42

N#Cc1cnn(C2CCN(C(=O)Nc3ccc(SC(F)(F)F)cc3)N=C2c2cccc(Cl)c2)c1 (stereo not drawn) [Example 21]
logP (pH 2)/ m.p. [° C.] (logP part): 4.53/194

N#Cc1cnn(C2CCN(C(=O)Nc3ccc(OC(F)(F)F)cc3)N=C2c2cccc(Cl)c2)c1 (stereo not drawn) [Example 19]
logP (pH 2)/ m.p. [° C.] (logP part): 4.15/186

O=C1OCCC1C(=O)c1cccc(OC(F)(F)F)c1 (stereo not drawn) [VIIa-4]
logP (pH 2): 2.59

N#Cc1cccc(C2=NN(C(=O)Nc3ccc(SC(F)(F)F)cc3)CCC2n2cc(C#N)cn2)c1 (stereo not drawn) [Example 26]
logP (pH 2)/ m.p. [° C.] (logP part): 3.94/242

O=C1OCCC1C(=O)c1cccc(Br)c1 (stereo not drawn) [Vlla-5]
logP (pH 2): 2.22

O=C(Nc1ccc(Cl)cc1)N1CCC(n2cc(Cl)cn2)C(c2cccc(Br)c2)=N1 (stereo not drawn) [Example 11]
kill [1]: 100% | logP (pH 2)/ m.p. [° C.] (logP part): 4.58/198 | kill [2]: 100%

N#Cc1cnn(C2CCN(C(=O)Nc3ccc(OC(F)(F)F)cc3)N=C2c2cccc(Br)c2)c1 (stereo not drawn) [Example 25]
logP (pH 2)/ m.p. [° C.] (logP part): 4.24/192

N#Cc1cnn(C2CCN(C(=O)Nc3ccc(Br)cc3)N=C2c2cccc(Cl)c2)c1 (stereo not drawn) [Example 28]
logP (pH 2)/ m.p. [° C.] (logP part): 4.03

Clc1cccc(C2=NNCCC2n2cc(Cl)cn2)c1 (stereo not drawn) [II-4]
logP (pH 2): 2.93

N#Cc1cnn(C2CCNN=C2c2cccc(Br)c2)c1 (stereo not drawn) [II-8]
logP (pH 2): 2.49

N#Cc1cccc(C(=O)C(CCCl)n2cc(C#N)cn2)c1 (stereo not drawn) [IV-9]
logP (pH 2): 2.41

N#Cc1cnn(C2CCN(C(=O)Nc3ccc(C(F)(F)F)cc3)N=C2c2cccc(Br)c2)c1 (stereo not drawn) [Example 27]
logP (pH 2)/ m.p. [° C.] (logP part): 4.18/244

N#Cc1cnn(C2CCN(C(=O)Nc3ccc(Cl)cc3)N=C2c2cccc(Br)c2)c1 (stereo not drawn) [Example 22]
logP (pH 2)/ m.p. [° C.] (logP part): 3.96/213

O=C1OCCC1C(=O)c1cccc(F)c1 (stereo not drawn) [VIIa-3]
logP (pH 2) (logP (pH 2)): 1.77

O=C(Nc1ccc(Cl)cc1)N1CCC(n2cc(Cl)cn2)C(c2cccc(OC(F)(F)F)c2)=N1 (stereo not drawn) [Example 10]
kill [1]: 100% | logP (pH 2)/ m.p. [° C.] (logP part): 4.73/158 | kill [2]: 100%

O=C(Nc1ccc(Cl)cc1)N1CCC(n2cc(Cl)cn2)C(c2cccc(Cl)c2)=N1 (stereo not drawn) [Example 8]
kill [1]: 100% | logP (pH 2)/ m.p. [° C.] (logP part): 4.49/203 | kill [2]: 100%

O=C(Nc1ccc(SC(F)(F)F)cc1)N1CCC(n2cc(Cl)cn2)C(c2cccc(C(F)(F)F)c2)=N1 (stereo not drawn) [Example 23]
logP (pH 2)/ m.p. [° C.] (logP part): 5.21/188 | % Activity/Kill [3, 5]: 0% | % Activity/Kill [3, 6]: 90% | % Activity/Kill (Lucilia cuprina larvae; Concentration 20 ppm): 0% | % Activity/Kill (Lucilia cuprina larvae; Concentration 100 ppm): 100%

N#Cc1cccc(C2=NN(C(=O)Nc3ccc(OC(F)(F)F)cc3)CCC2n2cc(C#N)cn2)c1 (stereo not drawn) [Example 29]
logP (pH 2)/ m.p. [° C.] (logP part): 3.62/239

O=C(c1cccc(C(F)(F)F)c1)C(CCCl)n1cc(Cl)cn1 (stereo not drawn) [IV-2]
logP (pH 2): 3.84

N#Cc1ccc(NC(=O)N2CCC(n3cc(Cl)cn3)C(c3cccc(Cl)c3)=N2)cc1 (stereo not drawn) [Example 20]
logP (pH 2)/ m.p. [° C.] (logP part): 3.77

FC(F)(F)c1cccc(C2=NNCCC2n2cc(Cl)cn2)c1 (stereo not drawn) [II-2]
logP (pH 2): 3.09

O=C(c1cccc(Br)c1)C(Br)CCCl (stereo not drawn) [Example V-4]
logP (pH 2): 4.02

O=C(c1cccc(Cl)c1)C(CCCl)n1cc(Cl)cn1 (stereo not drawn) [IV-4]
logP (pH 2): 3.68

O=C(c1cccc(OC(F)(F)F)c1)C(Br)CCCl (stereo not drawn) [Example V-3]
logP (pH 2): 4.19

Fc1cccc(C2=NNCCC2n2cc(Cl)cn2)c1 (stereo not drawn) [II-3]
logP (pH 2): 2.59

O=C(c1cccc(OC(F)(F)F)c1)C(CCCl)n1cc(Cl)cn1 (stereo not drawn) [IV-5]
logP (pH 2): 3.99

N#Cc1cnn(C(CCCl)C(=O)c2cccc(Br)c2)c1 (stereo not drawn) [IV-8]
logP (pH 2): 3.13

O=C(Nc1ccc(OC(F)(F)F)cc1)N1CCC(n2cc(Cl)cn2)C(c2cccc(C(F)(F)F)c2)=N1 (stereo not drawn) [Example 3]
kill [1]: 100% | logP (pH 2)/ m.p. [° C.] (logP part): 4.83/192 | kill [2]: 100% | % Activity/Kill [3, 4]: 0% | % Activity/Kill [3, 5]: 50% | % Activity/Kill [3, 6]: 95% | % Activity/Kill (Lucilia cuprina larvae; Concentration 4 ppm): 0% | % Activity/Kill (Lucilia cuprina larvae; Concentration 20 ppm): 100% | % Activity/Kill (Lucilia cuprina larvae; Concentration 100 ppm): 100%

N#Cc1cccc(C(=O)C(Br)CCCl)c1 (stereo not drawn) [Example V-1, 3′-cyano-2-bromo-4-chlorobutyrophenone]
logP (logP (pH 2)): 3.09

Clc1cnn(C2CCNN=C2c2cccc(Br)c2)c1 (stereo not drawn) [II-6]
logP (pH 2): 3.03

O=C(Nc1ccc(C(F)(F)F)cc1)N1CCC(n2cc(Cl)cn2)C(c2cccc(F)c2)=N1 (stereo not drawn) [Example 4]
kill [1]: 100% | logP (pH 2)/ m.p. [° C.] (logP part): 4.37/194 | kill [2]: 100%

O=C(Nc1ccc(OC(F)(F)F)cc1)N1CCC(n2cc(Cl)cn2)C(c2cccc(F)c2)=N1 (stereo not drawn) [Example 6]
kill [1]: 100% | logP (pH 2)/ m.p. [° C.] (logP part): 4.43/148 | kill [2]: 100% | % Activity/Kill [3, 4]: 0% | % Activity/Kill [3, 5]: 50% | % Activity/Kill [3, 6]: 99% | % Activity/Kill (Lucilia cuprina larvae; Concentration 20 ppm): 0% | % Activity/Kill (Lucilia cuprina larvae; Concentration 100 ppm): 100%

O=C(CCCCl)c1cccc(OC(F)(F)F)c1 [VI-2]
logP (pH 2): 3.71

O=C(Nc1ccc(Cl)cc1)N1CCC(n2cc(Cl)cn2)C(c2cccc(C(F)(F)F)c2)=N1 (stereo not drawn) [Example 2]
kill [1]: 100% | logP (pH 2)/ m.p. [° C.] (logP part): 4.60/199 | kill [2]: 100% | % Activity/Kill [3, 4]: 0% | % Activity/Kill [3, 5]: 30% | % Activity/Kill [3, 6]: 95% | % Activity/Kill (Lucilia cuprina larvae; Concentration 4 ppm): 0% | % Activity/Kill (Lucilia cuprina larvae; Concentration 20 ppm): 100% | % Activity/Kill (Lucilia cuprina larvae; Concentration 100 ppm): 100%

N#Cc1cccc(C(=O)CCCCl)c1 [VI-1, 3′-cyano-4-chlorobutyrophenone]
logP (logP (pH 2)): 2.49

O=C(c1cccc(F)c1)C(CCCl)n1cc(Cl)cn1 (stereo not drawn) [IV-3]
logP (pH 2): 3.31

N#Cc1cnn(C2CCNN=C2c2cccc(Cl)c2)c1 (stereo not drawn) [II-7]
logP (pH 2): 2.40

O=C(c1cccc(Br)c1)C(CCCl)n1cc(Cl)cn1 (stereo not drawn) [IV-6]
logP (pH 2): 3.78

N#Cc1cnn(C2CCN(C(=O)Nc3ccc(SC(F)(F)F)cc3)N=C2c2cccc(Br)c2)c1 (stereo not drawn) [Example 24]
logP (pH 2)/ m.p. [° C.] (logP part): 4.64/206

N#Cc1cccc(C2=NN(C(=O)Nc3ccc(C(F)(F)F)cc3)CCC2n2cc(Cl)cn2)c1 (stereo not drawn) [Example 16]
kill [1]: 100% | logP (pH 2)/ m.p. [° C.] (logP part): 4.03/229 | kill [2]: 100%

N#Cc1cccc(C(=O)C2CCOC2=O)c1 (stereo not drawn)
logP (logP (pH 2)): 1.48

N#Cc1cccc(C2=NNCCC2n2cc(C#N)cn2)c1 (stereo not drawn) [II-9]
logP (pH 2): 1.83

O=C(CCCCl)c1cccc(Br)c1 [VI-3]
logP (pH 2): 3.50

O=C(Nc1ccc(Cl)cc1)N1CCC(n2cc(Cl)cn2)C(c2cccc(F)c2)=N1 (stereo not drawn) [Example 5]
kill [1]: 100% | logP (pH 2)/ m.p. [° C.] (logP part): 4.18/213 | kill [2]: 100% | % Activity/Kill (Lucilia cuprina larvae; Concentration 20 ppm): 0% | % Activity/Kill (Lucilia cuprina larvae; Concentration 100 ppm): 100%

FC(F)(F)Oc1cccc(C2=NNCCC2n2cc(Cl)cn2)c1 (stereo not drawn) [II-5]
logP (pH 2): 3.32

N#Cc1cnn(C(CCCl)C(=O)c2cccc(Cl)c2)c1 (stereo not drawn) [IV-7]
logP (pH 2): 3.06
